# Test results: patent US7541367B2, “3-benzoimidazolyl-pyrazolopyridines useful in treating kinase disorders” (Janssen Pharmaceutica, N.V., priority 2005, dated 2009)
# Columns and labels:
# VEGF-R2 = molecular target: T1, VEGF-R2 (Rattus norvegicus, UniProt O08775); experiment: VEGF-R2 kinase screening assay (33P-ATP FlashPlate); format: biochemical; details: rat VEGF-R2 kinase domain; 10 μM ATP; 1 hr at 30° C;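 note: Read-out is ³³P incorporation from ³³P-γ-ATP into biotinylated peptide substrate captured on streptavidin FlashPlate, counted by scintillation, 1% DMSO final, inhibition scaled between per-plate maximum and minimum signals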
# T1 construct: polyhistidine (N)
# T1 sequence (O08775 786-1343): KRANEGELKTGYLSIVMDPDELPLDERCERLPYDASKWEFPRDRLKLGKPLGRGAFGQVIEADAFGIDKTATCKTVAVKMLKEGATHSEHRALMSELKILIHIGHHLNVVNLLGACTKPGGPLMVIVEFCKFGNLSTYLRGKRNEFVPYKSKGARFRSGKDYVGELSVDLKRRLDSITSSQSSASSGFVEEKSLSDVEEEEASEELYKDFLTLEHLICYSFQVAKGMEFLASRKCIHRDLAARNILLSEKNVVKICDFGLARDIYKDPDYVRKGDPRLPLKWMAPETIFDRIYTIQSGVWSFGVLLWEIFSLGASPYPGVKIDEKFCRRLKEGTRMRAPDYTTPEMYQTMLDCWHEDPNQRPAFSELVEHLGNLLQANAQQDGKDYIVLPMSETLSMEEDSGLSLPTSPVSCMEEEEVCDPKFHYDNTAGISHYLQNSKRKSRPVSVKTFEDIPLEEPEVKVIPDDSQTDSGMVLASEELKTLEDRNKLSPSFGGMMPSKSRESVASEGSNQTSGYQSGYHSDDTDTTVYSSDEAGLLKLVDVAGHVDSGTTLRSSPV
# [1] = tested on: HeLa cervical adenocarcinoma; experiment: Cell Proliferation Inhibition Assay (14C-thymidine incorporation), HeLa; format: cell-based; details: Homo sapiens, HeLa cells;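 note: test compound in DMSO added to cells seeded in scintillating 96-well plates, DMSO-only wells as control, uptake of methyl 14C-thymidine into new DNA counted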
# RET = molecular target: T2, RET (Homo sapiens, UniProt P07949); experiment: RET kinase screening assay (33P-ATP FlashPlate); format: biochemical; details: human RET kinase domain; 10 μM ATP; 1 hr at 30° C;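 note: biotinylated peptide substrate captured on streptavidin FlashPlate, 33P phosphate transfer read by scintillation counting, 1% DMSO, lower incorporation means inhibition, percent relative to per-plate maximum and minimum signals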
# T2 construct: polyhistidine (N)
# T2 sequence (P07949 658-1114 limits assumed): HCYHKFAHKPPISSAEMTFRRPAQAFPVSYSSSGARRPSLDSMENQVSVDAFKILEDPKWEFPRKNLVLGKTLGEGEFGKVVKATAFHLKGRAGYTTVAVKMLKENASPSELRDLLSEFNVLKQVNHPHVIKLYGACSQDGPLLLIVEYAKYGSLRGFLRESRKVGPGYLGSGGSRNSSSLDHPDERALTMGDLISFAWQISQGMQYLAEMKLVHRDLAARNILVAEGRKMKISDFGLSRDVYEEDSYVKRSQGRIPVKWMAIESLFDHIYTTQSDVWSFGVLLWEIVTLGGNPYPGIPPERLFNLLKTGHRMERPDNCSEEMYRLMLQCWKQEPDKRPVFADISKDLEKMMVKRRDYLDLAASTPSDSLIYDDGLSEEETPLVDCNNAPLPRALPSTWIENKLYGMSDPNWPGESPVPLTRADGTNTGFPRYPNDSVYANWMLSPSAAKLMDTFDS
# HCT-116 colon carcinoma = experiment: Cell Proliferation Inhibition Assay (14C-thymidine incorporation), HCT-116; format: cell-based; details: Homo sapiens;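 note: proliferation measured as methyl 14C-thymidine uptake into new DNA, counted in 96-well scintillating microplates, compared with DMSO-only control wells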
# Aurora-A = molecular target: T3, Aurora-A (Mus musculus, UniProt P97477); experiment: Aurora-A kinase screening assay (33P-ATP FlashPlate); format: biochemical; details: 10 μM ATP, 1 hr at 30° C;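 note: His-tagged mouse Aurora-A phosphorylating a biotinylated peptide captured on streptavidin plates, read as 33P uptake by scintillation counting, 1% DMSO, inhibition scaled between per-plate maximum and minimum signals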
# T3 construct: polyhistidine (N)
# T3 sequence (P97477 1-395): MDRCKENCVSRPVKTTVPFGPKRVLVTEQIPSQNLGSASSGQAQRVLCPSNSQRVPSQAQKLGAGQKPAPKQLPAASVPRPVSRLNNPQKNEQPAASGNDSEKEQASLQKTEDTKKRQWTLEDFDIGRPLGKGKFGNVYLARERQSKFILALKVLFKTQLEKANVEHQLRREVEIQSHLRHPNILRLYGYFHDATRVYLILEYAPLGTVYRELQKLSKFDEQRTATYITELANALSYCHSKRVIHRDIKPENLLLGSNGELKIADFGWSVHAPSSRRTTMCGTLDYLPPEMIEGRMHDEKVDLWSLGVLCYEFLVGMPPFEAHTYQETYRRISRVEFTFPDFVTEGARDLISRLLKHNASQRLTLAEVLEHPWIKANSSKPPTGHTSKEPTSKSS
# CDK1 = molecular target: T4, CDK1 (Homo sapiens, UniProt P06493); experiment: CDK-1 kinase screening assay (33P-ATP FlashPlate); format: biochemical; details: human CDK1 with cyclin B; 10 μM ATP; 1 hr at 30° C
# T4 construct: purchased New England Biolabs, Beverly, Mass; 6020; host or cells: insect cells
# T4 sequence (P06493 whole entry): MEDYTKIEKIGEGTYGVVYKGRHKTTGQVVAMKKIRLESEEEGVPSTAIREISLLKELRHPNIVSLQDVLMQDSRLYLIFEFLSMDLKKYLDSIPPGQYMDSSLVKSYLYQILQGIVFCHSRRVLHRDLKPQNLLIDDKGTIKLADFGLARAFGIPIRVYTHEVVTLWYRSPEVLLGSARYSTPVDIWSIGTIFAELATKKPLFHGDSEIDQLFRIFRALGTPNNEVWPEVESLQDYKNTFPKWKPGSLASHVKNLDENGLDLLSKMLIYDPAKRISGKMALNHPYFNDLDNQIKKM
# T4 sequence (P14635 whole entry partner): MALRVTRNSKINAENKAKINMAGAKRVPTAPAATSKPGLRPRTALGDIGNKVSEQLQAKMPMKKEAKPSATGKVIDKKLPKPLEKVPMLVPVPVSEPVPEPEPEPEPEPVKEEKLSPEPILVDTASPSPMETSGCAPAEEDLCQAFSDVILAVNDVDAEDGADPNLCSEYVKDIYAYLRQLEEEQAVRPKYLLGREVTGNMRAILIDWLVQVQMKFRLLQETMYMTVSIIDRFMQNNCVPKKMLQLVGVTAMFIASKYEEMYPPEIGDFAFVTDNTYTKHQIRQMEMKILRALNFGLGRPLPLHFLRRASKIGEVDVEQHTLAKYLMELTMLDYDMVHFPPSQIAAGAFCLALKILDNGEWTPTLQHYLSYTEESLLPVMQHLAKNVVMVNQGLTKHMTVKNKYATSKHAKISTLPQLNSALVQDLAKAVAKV
# Procedure: A kinase reaction mixture was prepared containing 50 mM Tris-HCl pH=8, 10 mM MgCl2, 0.1 mM […], 1 mM DTT, 10 μM ATP, 0.025 μM biotinylated histone-H1 peptide substrate and 0.2 μCuries per well ^33P-γ-ATP (2000-3000 Ci/mmol). 70 μL of the kinase reaction mixture was dispensed into the well of a streptavidin coated FlashPlate™ (Cat. # SMP103, NEN, Boston, Mass.).
# Test compound stock in 100% DMSO (1 μL) was added to the wells resulting in a final concentration of 1% DMSO in the reaction with a 100 μL final reaction volume. Each enzyme was diluted in 50 mM Tris-HCl pH=8.0, 0.11% BSA and 30 μL was added to each well to initiate the reaction. The reaction was incubated for one hour at 30° C. At the end of the 1 hr incubation, the reaction was terminated by aspirating the mixture from the plate and washing the wells twice with PBS containing 100 mM EDTA. The biotinylated peptide substrate became immobilized on the Flashplate™ and the incorporation of ^33P-γ-ATP was measured by reading the plate on a scintillation counter. Inhibition of the enzymatic activity was measured by observing a reduced amount of ^33P-γ-ATP incorporated into the immobilized peptide.
# The CDK1 enzyme was isolated from insect cells expressing both the human CDK1 catalytic subunit (Accession number NM_001786) and its positive regulatory subunit cyclin B (New England Biolabs, Beverly, Mass.; Cat. # 6020). The assay used 30 ng of the N-terminal biotinylated peptide biotin-[…]-amide (Cyclin dependent kinase 1) per well.
# A maximum and minimum signal for the assay was determined on each plate. The percent inhibition of a test compound was calculated according to the formula: […]
# For a series of test concentrations, the IC50 was derived by graphing percent inhibition against the log of the concentrations tested for a given compound with results shown in Table 1.
# For compounds with multiple values, each value represents a separate assay result.
# HER2 = molecular target: T5, HER2 (Homo sapiens, UniProt P04626); experiment: HER2 kinase screening assay (33P-ATP FlashPlate); format: biochemical; details: GST-HIS6 HER-2 aa 679 to 1255; 10 μM ATP; 1 hr at 30° C;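 note: Biotin-poly(GT) 4:1 peptide captured on streptavidin FlashPlate, 33P transfer from γ-ATP read by scintillation counting, lower incorporation means inhibition, 1% DMSO final, 100 µL reaction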
# T5 construct: GST (Glutathione-S-Transferase) (N); HIS6 (N); thrombin cleavage site (N); purchased Proqinase, Freiburg, Germany
# T5 sequence (P04626 679-1255): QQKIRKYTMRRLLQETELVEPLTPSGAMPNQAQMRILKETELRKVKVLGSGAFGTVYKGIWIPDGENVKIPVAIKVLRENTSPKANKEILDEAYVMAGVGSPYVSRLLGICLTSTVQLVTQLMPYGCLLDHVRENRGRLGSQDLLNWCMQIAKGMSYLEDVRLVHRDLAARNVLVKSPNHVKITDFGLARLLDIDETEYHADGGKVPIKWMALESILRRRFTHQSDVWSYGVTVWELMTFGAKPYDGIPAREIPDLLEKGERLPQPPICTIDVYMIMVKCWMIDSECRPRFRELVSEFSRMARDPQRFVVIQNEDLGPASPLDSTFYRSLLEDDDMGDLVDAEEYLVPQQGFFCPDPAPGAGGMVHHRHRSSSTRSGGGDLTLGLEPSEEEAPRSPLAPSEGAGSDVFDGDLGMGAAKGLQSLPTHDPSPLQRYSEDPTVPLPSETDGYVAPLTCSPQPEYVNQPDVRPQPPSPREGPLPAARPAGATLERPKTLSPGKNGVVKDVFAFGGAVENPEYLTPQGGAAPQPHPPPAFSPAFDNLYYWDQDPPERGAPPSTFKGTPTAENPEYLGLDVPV
# A375 malignant melanoma = experiment: Cell Proliferation Inhibition Assay (14C-thymidine incorporation), A375; format: cell-based; details: Homo sapiens, A-375, A375 cells;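 note: proliferation measured by radiolabelled thymidine uptake into new DNA, counted in scintillating 96-well plates, compound-treated wells compared with DMSO-only control wells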
IC50 (VEGF-R2) [nM],IC50 ([1]; HeLa) [nM],IC50 (RET) [nM],"IC50 (HCT-116 colon carcinoma; HCT-116, HCT-116 cells) [nM]",IC50 (Aurora-A) [nM],IC50 (CDK1) [nM],IC50 (HER2) [nM],IC50 (A375 malignant melanoma) [nM],Structure (SMILES),IC50 [1] [nM],IC50 (HCT-116 colon carcinoma; HCT-116 cells) [nM]
> 100000,1760,> 100000,892,> 10000,41.2,245,,"OCc1cccc2[nH]c(-c3n[nH]c4ncc(-c5cncc6ccccc56)cc34)nc12 [Cpd 3, [2-(5-isoquinolin-4-yl-1H-pyrazolo[3,4-b]pyridin-3-yl)-1H-benzoimidazol-4-yl]-methanol]",,
461,14.8,> 10000,10.1,324,5.61,85.1,10.1,"COCc1cccc2[nH]c(-c3n[nH]c4ncc(-c5cncc6ccccc56)cc34)nc12 [Cpd 4, 4-[3-(4-methoxymethyl-1H-benzoimidazol-2-yl)-1H-pyrazolo[3,4-b]pyridin-5-yl]-isoquinoline]",,
952,354,> 10000,259,975,77.6,89.4,255,"CCN(CC)Cc1cccc2[nH]c(-c3n[nH]c4ncc(Br)cc34)nc12 [Cpd 6, [2-(5-bromo-1H-pyrazolo[3,4-b]pyridin-3-yl)-1H-benzoimidazol-4-ylmethyl]-diethyl-amine]",,
~1000,134,> 100000,109,3620,12.8,> 100000,140,"CC(C)NCc1cccc2[nH]c(-c3n[nH]c4ncc(-c5cncc6ccccc56)cc34)nc12 [Cpd 13, isopropyl-[2-(5-isoquinolin-4-yl-1H-pyrazolo[3,4-b]pyridin-3-yl)-1H-benzoimidazol-4-ylmethyl]-amine]",,
4570,1000,~100000,312,> 1000,72.1,> 100000,649,"COCCOCc1cccc2[nH]c(-c3n[nH]c4ncc(-c5cncc6ccccc56)cc34)nc12 [Cpd 14, 4-{3-[4-(2-methoxy-ethoxymethyl)-1H-benzoimidazol-2-yl]-1H-pyrazolo[3,4-b]pyridin-5-yl}-isoquinoline]",,
157,1460,~10000,,> 10000,1360,,10.7,"COCc1cccc2[nH]c(-c3n[nH]c4ncc(-c5cnc6ccccc6c5)cc34)nc12 [Cpd 34, 3-[3-(4-methoxymethyl-1H-benzoimidazol-2-yl)-1H-pyrazolo[3,4-b]pyridin-5-yl]-quinoline]",,

# Further lines, the compound ahead of its results:
Structure (SMILES),IC50 (VEGF-R2) [nM],IC50 ([1]; HeLa) [nM],IC50 (RET) [nM],"IC50 (HCT-116 colon carcinoma; HCT-116, HCT-116 cells) [nM]",IC50 (Aurora-A) [nM],IC50 (CDK1) [nM],IC50 (HER2) [nM],IC50 (A375 malignant melanoma) [nM],IC50 [1] [nM],IC50 (HCT-116 colon carcinoma; HCT-116 cells) [nM]
"c1ccc2c(-c3cnc4[nH]nc(-c5nc6c(CN7CCCC7)cccc6[nH]5)c4c3)cncc2c1 [Cpd 7, 4-[3-(4-pyrrolidin-1-ylmethyl-1H-benzoimidazol-2-yl)-1H-pyrazolo[3,4-b]pyridin-5-yl]-isoquinoline]",1570,113,> 10000,64.8,1720,4.92,,82.5,,
"c1ccc2c(-c3cnc4[nH]nc(-c5nc6c(CN7CCCCC7)cccc6[nH]5)c4c3)cncc2c1 [Cpd 8, 4-[3-(4-piperidin-1-ylmethyl-1H-benzoimidazol-2-yl)-1H-pyrazolo[3,4-b]pyridin-5-yl]-isoquinoline]",403,48.6,> 10000,28.5,1370,8.11,,29.2,,
"c1ccc2c(-c3cnc4[nH]nc(-c5nc6c(CN7CCOCC7)cccc6[nH]5)c4c3)cncc2c1 [Cpd 9, 4-[3-(4-morpholin-4-ylmethyl-1H-benzoimidazol-2-yl)-1H-pyrazolo[3,4-b]pyridin-5-yl]-isoquinoline]",210,92.6,~10000,64.7,~10000,8.45,,84,,
"CCN1CCN(Cc2cccc3[nH]c(-c4n[nH]c5ncc(-c6cncc7ccccc67)cc45)nc23)CC1 [Cpd 10, 4-{3-[4-(4-ethyl-piperazin-1-ylmethyl)-1H-benzoimidazol-2-yl]-1H-pyrazolo[3,4-b]pyridin-5-yl}-isoquinoline]",163,127,> 10000,191,6740,15.9,,118,,
"c1ccc2c(-c3cnc4[nH]nc(-c5nc6c(Cn7ccnc7)cccc6[nH]5)c4c3)cncc2c1 [Cpd 12, 4-[3-(4-imidazol-1-ylmethyl-1H-benzoimidazol-2-yl)-1H-pyrazolo[3,4-b]pyridin-5-yl]-isoquinoline]",~10000,3200,~100000,1890,~10000,41.5,,4090,,
"c1ccc2c(-c3cnc4[nH]nc(-c5nc6c(COCCN7CCOCC7)cccc6[nH]5)c4c3)cncc2c1 [Cpd 15, 4-{3-[4-(2-morpholin-4-yl-ethoxymethyl)-1H-benzoimidazol-2-yl]-1H-pyrazolo[3,4-b]pyridin-5-yl}-isoquinoline]",~1000,8520,929,5820,2270,33,~100000,7610,,
"CN1CCN(c2ccc3[nH]c(-c4n[nH]c5ncc(-c6cccnc6)cc45)nc3c2)CC1 [Cpd 89, 3-[5-(4-methyl-piperazin-1-yl)-1H-benzoimidazol-2-yl]-5-pyridin-3-yl-1H-pyrazolo[3,4-b]pyridine]",47.5,617,193,423,225,,31800,544,,
"CCCCNCc1cncc(-c2cnc3[nH]nc(-c4nc5cc(OC)ccc5[nH]4)c3c2)c1 [Cpd 104, butyl-{5-[3-(5-methoxy-1H-benzoimidazol-2-yl)-1H-pyrazolo[3,4-b]pyridin-5-yl]-pyridin-3-ylmethyl}-amine]",17.9,,,,245,0.8,1880,39.5,85,52
"COC(=O)c1cccc2[nH]c(-c3n[nH]c4ncc(-c5cncc6ccccc56)cc34)nc12 [Cpd 108, 2-(5-isoquinolin-4-yl-1H-pyrazolo[3,4-b]pyridin-3-yl)-1H-benzoimidazole-4-carboxylic acid methyl ester]",~100000,10500,> 100000,,~100000,~10000,> 100000,7380,,
